What all share (format): functional
One assay relates to Staphylococcus aureus. Put plainly: Antimicrobial activity against Staphylococcus aureus.
Assay [1] relates to Mycolicibacterium smegmatis. Put plainly: Antimicrobial activity against Mycobacterium smegmatis.
Another assay concerns Candida albicans. The assay is described as follows: Antimicrobial activity against Candida albicans.

Molecules are shown by their SMILES. Converted amounts (≈) assume the structure as drawn.

Take `COc1ccc(C[C@H]2c3cc(OC)c(OC)c(O)c3CCN2C)cc1Oc1ccc(C[C@H]2c3cc4c(c(OC)c3CCN2C)OCO4)cc1` [THALISTINE]: the MIC (in general, the lowest concentration that inhibits growth of the organism) worked out at 1000 µg/mL (≈ 1500 µM) in the assay on Staphylococcus aureus and 100 µg/mL (≈ 150 µM) in assay [1].
Consider `COc1ccc2cc1Oc1ccc(cc1)C[C@H]1c3c(c(O)c(OC)c(OC)c3Oc3c4c(cc(OC)c3OC)[C@H](C2)N(C)CC4)CCN1C` [THALIMIRABINE], for which it took 100 µg/mL (≈ 150 µM) to inhibit growth in assay [1] (MIC).
Regarding `COc1cc2c(cc1OC)[C@H](Cc1ccc(Oc3cc(C[C@H]4c5cc(OC)c(OC)cc5CCN4C)ccc3OC)cc1)N(C)CC2`, the MIC stood at 500 µg/mL (≈ 783 µM) against Candida albicans and 100 µg/mL (≈ 157 µM) in assay [1].
